Measured values reported in the NIST ThermoML archive (doi:10.1016/j.jct.2018.03.021).

Tests used:
[1] = molar heat capacity at constant pressure; xn = mol fraction of the nth substance listed; settings: 100 kPa, Liquid, Extra sensitive DSC
[2] = xn = mol fraction of the nth substance listed; settings: 100 kPa, Liquid, Vibrating tube method

Cc1ccc(C(C)C)cc1 [1-(1-methylethyl)-4-methylbenzene] + CCCO
Settings	mass density, 298.15 K [kg/m3]	mass density, 308.15 K [kg/m3]	mass density, 318.15 K [kg/m3]	mass density, 328.15 K [kg/m3]	molar heat capacity at constant pressure, 298.8 K [J/K/mol]	molar heat capacity at constant pressure, 308.7 K [J/K/mol]	molar heat capacity at constant pressure, 318.6 K [J/K/mol]	molar heat capacity at constant pressure, 328.5 K [J/K/mol]
[1], x1 = 0.0499	–	–	–	–	151.2	158.5	165.9	173.4
[1], x1 = 0.1007	–	–	–	–	159.6	166.5	173.5	180.7
[1], x1 = 0.2029	–	–	–	–	174.5	182.2	188.4	195.4
[1], x1 = 0.3021	–	–	–	–	186.9	194	201.2	208.3
[1], x1 = 0.4032	–	–	–	–	198.6	206.1	213.2	220.7
[1], x1 = 0.5045	–	–	–	–	210.6	217.2	223.9	231.2
[1], x1 = 0.6044	–	–	–	–	221	227.2	233.3	240.2
[1], x1 = 0.6974	–	–	–	–	229.1	235	240.8	246.8
[1], x1 = 0.8035	–	–	–	–	237.6	242.8	248.1	253.4
[1], x1 = 0.8989	–	–	–	–	242.2	246.2	250.4	254.5
[1], x1 = 0.9508	–	–	–	–	242.4	245.3	248.8	252.6
[1], x1 = 1	–	–	–	–	240.9	244.8	249.4	254.6
[2], x1 = 0.0499	804.92	796.73	788.38	779.8	–	–	–	–
[2], x1 = 0.1007	809.8	801.54	793.11	784.46	–	–	–	–
[2], x1 = 0.2029	818.12	809.76	801.22	792.47	–	–	–	–
[2], x1 = 0.3021	824.8	816.37	807.78	798.98	–	–	–	–
[2], x1 = 0.4032	830.42	821.98	813.38	804.59	–	–	–	–
[2], x1 = 0.5045	835.28	826.83	818.25	809.51	–	–	–	–
[2], x1 = 0.6044	839.47	831.05	822.51	813.82	–	–	–	–
[2], x1 = 0.6974	842.95	834.57	826.09	817.49	–	–	–	–
[2], x1 = 0.8035	846.57	838.26	829.87	821.37	–	–	–	–
[2], x1 = 0.8989	849.61	841.39	833.1	824.75	–	–	–	–
[2], x1 = 0.9508	851.22	843.07	834.88	826.65	–	–	–	–
[2], x1 = 1	852.99	844.94	836.86	828.75	–	–	–	–
